The source of these data is patent US8524738B2, “Quinolinones and quinoxalinones as antibacterial composition” (Toyama Chemical Co., Ltd., priority 2005, dated 2013).

In brackets after ≈: the same amount, converted by molar mass. Where a name gives a salt, the structure may show the parent alone. Read-outs that look alike come from different tables or passages of the source. Where only a bound is given, the exact number is not on record here.

For data set [1], the system named is Staphylococcus aureus (S. aureus FDA209P). Put plainly: Sensitivity Test 1: antibacterial activity (MIC) by micro-dilution method. In kind it is cell-based. How it is done:
(§1) Test compounds were initially dissolved in dimethylsulfoxide. Antibacterial activities (MICs) of the same compounds were determined by the micro-dilution method as recommended by the Japanese Society of Chemotherapy.
(§2) Staphylococcus aureus (S. aureus FDA209P) was used as the test organism. The bacterial cells were grown overnight at 35° C. on Mueller-Hinton agar (MHA) plates. The bacterial cells were then suspended in sterile saline and adjusted to the turbidity of a 0.5 McFarland standard. The inoculum was prepared by 10-fold dilution of this suspension. Approximately 0.005 mL aliquots of the inoculum prepared above were subsequently inoculated into Cation-adjusted Mueller-Hinton broth (CAMHB, 100 μL/well) including the test compounds for overnight incubation at 35° C.

The subject of data set [2] is Methicillin-resistant Staphylococcus aureus (S. aureus F-3095). The experiment in a line: Sensitivity Test 2: antibacterial activity (MIC) by micro-dilution method. In kind it is cell-based. The protocol: as §1, §2
Methicillin-resistant Staphylococcus aureus (S. aureus F-3095) was used as the test organism. Antibacterial activities (MICs) were determined in the same manner as in Test Example 1.

In a further data set the test system is Vero cells. The experiment in a line: Cytotoxicity Test (XTT) on Vero cells. The note with it: 51.2 μg/mL of test compound, 3 days at 37° C., XTT absorbance ratio of treated to untreated well. Type of data set: cell-based. The protocol:
Test compounds were initially dissolved in dimethylsulfoxide. […]. After incubation, absorbance was read at 450 nm and 655 nm in a spectrophotometric microplate reader. The values were expressed as the ratio between the value for the well treated with 51.2 μg/mL of each test compound and the value for the well untreated with the test compound (T/C).

Another data set relates to S. aureus Smith. Put plainly: Infection Test: mice infected intraperitoneally with S. aureus Smith. In kind it is in vivo. The conditions noted are these: ICR mice, 5 per group; S. aureus Smith i.p.; 10 mg/kg subcutaneously once at 1 hour after infection; survivors recorded 3 days after infection. How it is done: S. aureus Smith which was grown overnight at 37° C. on Mueller-Hinton agar (MHA) plates were suspended to give a final concentration of 10^9 CFU/mL. The inoculum was prepared by diluting this suspension 10-fold in 1/15 mol/L phosphate buffer (pH 7) containing 5.6% mucin. ICR mice (4 to 4.5 weeks of age, male, 5 mice per group) were intraperitoneally administered with the inoculum (approximately 2×10^7 CFU per mice) to induce infection.
After dissolving the test compounds in 0.1 mol/L hydrochloric acid, 20% 2-hydroxypropyl-β-cyclodextrin (HP-β-CD) or a mixture of 20% HP-β-CD and 0.1 mol/L hydrochloric acid at a proportion of 1:1 was added to give a final concentration of 1 mg/mL. Each of the test compound solutions (10 mg/kg) was subcutaneously administered once to a group of mice at 1 hour after infection. The control group was administered with 10% HP-β-CD. The mice were observed daily and the number of surviving mice in each group was recorded 3 days after infection.

The mark [3] stands for this setting: S. aureus FDA209P, CAMHB, overnight incubation at 35° C., lowest concentration with virtually no growth, read-out: MIC.
The mark [4] stands for this setting: Methicillin-resistant S. aureus F-3095, same manner as in Test Example 1, read-out: MIC.

Regarding `CNC(=O)c1cc(=O)n(CCN2CCC(NCc3ccc4c(c3)OCCO4)CC2)c2cc(OC)ccc12` [Example 25, 1-(2-(4-((2,3-dihydro-1,4-benzodioxin-6-ylmethyl)amino)piperidin-1-yl)ethyl)-7-methoxy-N-methyl-2-oxo-1,2-dihydroquinoline-4-carboxamide], the MIC was found to be 0.0625 µg/mL (≈ 0.123 µM) in data set [1] (setting [3]) and 0.125 µg/mL (≈ 0.247 µM) in data set [2] (setting [4]). Also, the T/C in the data set on Vero cells is listed as more than 50%. Besides, the “Number of surviving mice” value in the data set on S. aureus Smith amounted to 5.
For `COc1ccc2ncc(=O)n(CCN3CCC(NCc4ccc5c(c4)NC(=O)CO5)CC3)c2c1` [Example 90, 6-(((1-(2-(7-methoxy-2-oxoquinoxaline-1-(2H)-yl)ethyl)piperidin-4-yl)amino)methyl)-2H-1,4-benzooxazine-3(4H)-one], in that order: 0.0313 µg/mL (≈ 0.0675 µM), 0.0625 µg/mL (≈ 0.135 µM), more than 50% and 5.
Consider `COCCNC(=O)c1cc(=O)n(CCN2CCC(NCc3ccc4c(c3)OCCO4)CC2)c2cc(OC)ccc12` [Example 141, 1-(2-(4-((2,3-dihydro-1,4-benzodioxin-6-ylmethyl)amino)piperidin-1-yl)ethyl)-7-methoxy-N-(2-methoxyethyl)-2-oxo-1,2-dihydroquinoline-4-carboxamide hydrochloride], for which the MIC in data set [1] (FDA209P) is 0.125 µg/mL; in data set [2] it was 0.25 µg/mL. Further, the T/C in the data set on Vero cells is given as more than 50%. In the data set on S. aureus Smith, the “Number of surviving mice” value is 5.
As for `Nc1cccc2c1ccc(=O)n2CCN1CCC(NCc2ccc3c(c2)OCCO3)CC1` [Example 263, 1-(2-(4-((2,3-dihydro-1,4-benzodioxin-6-ylmethyl)amino)piperidin-1-yl)ethyl)-5-aminoquinolin-2(1H)-one hydrochloride], the results for the MIC in data set [1] (FDA209P) and in data set [2] were 0.125 µg/mL and 0.25 µg/mL, respectively. Besides, the T/C with Vero cells is on record as more than 50%. The “Number of surviving mice” value with S. aureus Smith is on record as 5.
In the case of `CNC(=O)c1cc(=O)n(CCN2CCC(NCc3ccc(C)c(F)c3)CC2)c2cc(OC)ccc12` [Example 340, 1-(2-(4-(3-fluoro-4-methylbenzylamino)piperidin-1-yl)ethyl)-7-methoxy-N-methyl-2-oxo-1,2-dihydroquinoline-4-carboxamide hydrochloride], the MIC in data set [1] (FDA209P) came to 0.0313 µg/mL; in data set [2], 0.0625 µg/mL. Also, in the data set with Vero cells, the T/C was more than 50%. Besides, in the data set on S. aureus Smith, the “Number of surviving mice” value is 5.
Take `CNC(=O)c1cc(=O)n(CCN2CCC(NCc3cc(-c4cccs4)on3)CC2)c2cc(OC)ccc12` [Example 341, 7-methoxy-N-methyl-2-oxo-1-(2-(4-((5-(thiophen-2-yl)isoxazol-3-yl)methylamino)piperidin-1-yl)ethyl)-1,2-dihydroquinoline-4-carboxamide hydrochloride]: the figures for the MIC in data set [1] (FDA209P) and in data set [2] were 0.0313 µg/mL and 0.0625 µg/mL, respectively. In addition, the T/C in the data set on Vero cells is given as more than 50%. In addition, in the data set on S. aureus Smith, the “Number of surviving mice” value was 5.
As to `O=c1cnc2ccc(F)cc2n1CCN1CCC(NCc2cc3c(cn2)OCCO3)CC1` [Example 352, 1-(2-(4-((2,3-dihydro-1,4-dioxino[2,3-c]pyridin-7-yl)methylamino)piperidin-1-yl)ethyl)-7-fluoroquinoxalin-2(1H)-one hydrochloride], the MIC in data set [1] (FDA209P) amounted to 0.0156 µg/mL; in data set [2] it was 0.0313 µg/mL. Further, the T/C in the data set with Vero cells is recorded as more than 50%. In addition, the “Number of surviving mice” value with S. aureus Smith is 5.
For `COc1ccc2ncc(=O)n(CCN3CCC(NCc4cc5c(cn4)OCCO5)CC3)c2c1` [Example 359, 1-(2-(4-((2,3-dihydro-1,4-dioxino[2,3-c]pyridin-7-yl)methylamino)piperidin-1-yl)ethyl)-7-methoxy-quinoxalin-2(1H)-one hydrochloride], in that order: 0.0313 µg/mL, 0.0313 µg/mL, more than 50% and 5.
For `Cc1ccc(CNC2CCN(CCn3c(=O)cnc4ccc(F)cc43)CC2)cc1F` [Example 367, 1-(2-(4-((3-fluoro-4-methylbenzyl)amino)piperidin-1-yl)ethyl)-7-fluoroquinoxalin-2(1H)-one hydrochloride], in that order: 0.0156 µg/mL, 0.0156 µg/mL, more than 50% and 5.
For `O=C1CSc2ccc(CNC3CCN(CCn4c(=O)cnc5ccc(F)cc54)CC3)nc2N1` [Example 369, 7-fluoro-1-(2-(4-((3-oxo-3,4-dihydro-2H-pyrido[3,2-b][1,4]thiazin-6-yl)methylamino)piperidin-1-yl)ethyl)quinoxalin-2(1H)-one hydrochloride] the same measures were 0.0313 µg/mL, 0.0313 µg/mL, more than 50% and 5.
